Results published in ChEMBL document CHEMBL1140353, “Structure-activity relationships of 1-alkyl-5-(3,4-dichlorophenyl)-5-{2-[3-(substituted)-1-azetidinyl]-ethyl}-2-piperidones. Part 2: Improving oral absorption” (Bioorg Med Chem Lett, 2005).

Species on record: Homo sapiens
Test: Ratio of apical basolateral (A-B) and basolateral apical (B-A) determined by Caco-2 assay in human (ER=2/12)
Type: ADME
Details: not given

| SMILES | Caco-2 permeability |
| --- | --- |
| O=C1CC[C@](CCN2CC(N3CCC(O)CC3)C2)(c2ccc(Cl)c(Cl)c2)CN1CC1CCC(F)(F)CC1 | Permeable |

Species on record: Homo sapiens
Test: Ratio of apical basolateral (A-B) and basolateral apical (B-A) determined by Caco-2 assay in human (ratio=12/18)
Type: ADME
Details: not given

| SMILES | Caco-2 permeability |
| --- | --- |
| O=C1CC[C@](CCN2CC(N3CCOCC3)C2)(c2ccc(Cl)c(Cl)c2)CN1CC1CC1 | Permeable |

Species on record: Homo sapiens
Test: Ratio of apical basolateral (A-B) and basolateral apical (B-A) determined by Caco-2 assay in human (ER=6/12)
Type: ADME
Details: not given

| SMILES | Caco-2 permeability |
| --- | --- |
| CS(=O)(=O)N1CCN(C2CN(CC[C@]3(c4ccc(Cl)c(Cl)c4)CCC(=O)N(CC4CCC(F)(F)CC4)C3)C2)CC1 | Permeable |

Species on record: Homo sapiens
Test: Ratio of apical basolateral (A-B) and basolateral apical (B-A) determined by Caco-2 assay in human (ER=12/16)
Type: ADME
Details: not given

| SMILES | Caco-2 permeability |
| --- | --- |
| O=C1CC[C@](CCN2CC(N3CCOCC3)C2)(c2ccc(Cl)c(Cl)c2)CN1CC1CCCCC1 | Permeable |

Molecular target: T1, Substance-K receptor (Homo sapiens, UniProt P21452)
T1 sequence (P21452 whole entry): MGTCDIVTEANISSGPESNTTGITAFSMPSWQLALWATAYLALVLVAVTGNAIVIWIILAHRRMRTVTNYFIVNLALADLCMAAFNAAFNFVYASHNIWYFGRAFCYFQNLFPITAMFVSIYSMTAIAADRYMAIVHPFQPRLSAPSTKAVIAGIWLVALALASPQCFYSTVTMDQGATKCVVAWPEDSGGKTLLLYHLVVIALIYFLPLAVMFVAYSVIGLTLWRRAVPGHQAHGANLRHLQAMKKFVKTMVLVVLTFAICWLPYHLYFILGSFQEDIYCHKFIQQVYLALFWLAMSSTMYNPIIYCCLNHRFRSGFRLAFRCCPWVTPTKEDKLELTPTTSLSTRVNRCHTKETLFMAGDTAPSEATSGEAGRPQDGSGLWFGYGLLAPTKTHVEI
Test: Inhibition of human Neurokinin 2 receptor
Details: not given

| SMILES | IC50 |
| --- | --- |
| CN(C)S(=O)(=O)N1CCN(C2CN(CC[C@]3(c4ccc(Cl)c(Cl)c4)CCC(=O)N(CC4CC4)C3)C2)CC1 | 15.8 nM |
| O=C1CC[C@](CCN2CC(N3CCC(F)CC3)C2)(c2ccc(Cl)c(Cl)c2)CN1CCC1CC1 | 2.51 nM |
| CS(=O)(=O)N1CCN(C2CN(CC[C@]3(c4ccc(Cl)c(Cl)c4)CCC(=O)N(CC4CCC(F)(F)CC4)C3)C2)CC1 | 1.26 nM |
| O=C1CC[C@](CCN2CC(N3CCOCC3)C2)(c2ccc(Cl)c(Cl)c2)CN1CC1CCCCC1 | 0.794 nM |
| O=C1CC[C@](CCN2CC(N3CCOCC3)C2)(c2ccc(Cl)c(Cl)c2)CN1CC1CCC(F)(F)CC1 | 7.94 nM |
| O=C1CC[C@](CCN2CC(N3CCC(F)CC3)C2)(c2ccc(Cl)c(Cl)c2)CN1CC1CC1 | 10 nM |
| O=C1CC[C@](CCN2CC(N3CCOCC3)C2)(c2ccc(Cl)c(Cl)c2)CN1CC1CC1 | 79.4 nM |
| O=C1CCN(C2CN(CC[C@]3(c4ccc(Cl)c(Cl)c4)CCC(=O)N(CC4CCC(F)(F)CC4)C3)C2)CC1 | 3.16 nM |
| O=C1CC[C@](CCN2CC(N3CCC(O)CC3)C2)(c2ccc(Cl)c(Cl)c2)CN1CC1CCC(F)(F)CC1 | 1.26 nM |

Test system: not listed separately
Test: Distribution coefficient (Log D) value at pH 7.4
Type: physicochemical
Details: octanol/water

| SMILES | logD |
| --- | --- |
| O=C1CC[C@](CCN2CC(N3CCOCC3)C2)(c2ccc(Cl)c(Cl)c2)CN1CC1CC1 | 2.3 |
| O=C1CC[C@](CCN2CC(N3CCC(O)CC3)C2)(c2ccc(Cl)c(Cl)c2)CN1CC1CCC(F)(F)CC1 | 2.2 |

Species on record: Homo sapiens
Test: Ratio of apical basolateral (A-B) and basolateral apical (B-A) determined by Caco-2 assay in human (ER=60/60)
Type: ADME
Details: not given

| SMILES | Caco-2 permeability |
| --- | --- |
| O=C1CC[C@](CCN2CC(N3CCC(F)CC3)C2)(c2ccc(Cl)c(Cl)c2)CN1CC1CC1 | Permeable |

Species on record: Homo sapiens
Test: Ratio of apical basolateral (A-B) and basolateral apical (B-A) determined by Caco-2 assay in human (ER=33/35)
Type: ADME
Details: not given

| SMILES | Caco-2 permeability |
| --- | --- |
| O=C1CC[C@](CCN2CC(N3CCOCC3)C2)(c2ccc(Cl)c(Cl)c2)CN1CC1CCC(F)(F)CC1 | Permeable |

Test system: not listed separately
Test: Half life in human microsomal liver cells
Type: ADME
Details: liver microsomes

| SMILES | half-life |
| --- | --- |
| O=C1CC[C@](CCN2CC(N3CCOCC3)C2)(c2ccc(Cl)c(Cl)c2)CN1CC1CCCCC1 | 0.233 h |
| O=C1CC[C@](CCN2CC(N3CCOCC3)C2)(c2ccc(Cl)c(Cl)c2)CN1CC1CCC(F)(F)CC1 | 1.33 h |
| O=C1CC[C@](CCN2CC(N3CCC(F)CC3)C2)(c2ccc(Cl)c(Cl)c2)CN1CC1CC1 | 1.42 h |
| O=C1CC[C@](CCN2CC(N3CCOCC3)C2)(c2ccc(Cl)c(Cl)c2)CN1CC1CC1 | 2 h |

Molecular target: T2, Substance-K receptor (Oryctolagus cuniculus, UniProt P79218)
T2 sequence (P79218 whole entry): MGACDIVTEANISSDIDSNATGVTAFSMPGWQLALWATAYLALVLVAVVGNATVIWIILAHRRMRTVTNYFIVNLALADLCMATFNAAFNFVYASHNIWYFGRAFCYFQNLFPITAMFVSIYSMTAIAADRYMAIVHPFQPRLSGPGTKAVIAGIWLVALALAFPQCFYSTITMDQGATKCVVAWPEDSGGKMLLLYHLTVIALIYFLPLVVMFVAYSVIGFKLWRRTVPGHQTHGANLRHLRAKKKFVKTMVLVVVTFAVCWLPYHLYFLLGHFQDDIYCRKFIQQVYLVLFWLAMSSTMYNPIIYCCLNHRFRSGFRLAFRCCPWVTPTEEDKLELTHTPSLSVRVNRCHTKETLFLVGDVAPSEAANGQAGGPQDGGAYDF
Test: pA2 for NK2 receptor of rabbit pulmonary artery
Type: functional
Details: read-out: pA2 (converted)

| SMILES | Kb |
| --- | --- |
| CN(C)S(=O)(=O)N1CCN(C2CN(CC[C@]3(c4ccc(Cl)c(Cl)c4)CCC(=O)N(CC4CC4)C3)C2)CC1 | 10 nM |
| O=C1CC[C@](CCN2CC(N3CCC(F)CC3)C2)(c2ccc(Cl)c(Cl)c2)CN1CCC1CC1 | 1.58 nM |
| CS(=O)(=O)N1CCN(C2CN(CC[C@]3(c4ccc(Cl)c(Cl)c4)CCC(=O)N(CC4CCC(F)(F)CC4)C3)C2)CC1 | 1 nM |
| O=C1CC[C@](CCN2CC(N3CCOCC3)C2)(c2ccc(Cl)c(Cl)c2)CN1CC1CCCCC1 | 1 nM |
| O=C1CC[C@](CCN2CC(N3CCOCC3)C2)(c2ccc(Cl)c(Cl)c2)CN1CC1CCC(F)(F)CC1 | 1.26 nM |
| O=C1CC[C@](CCN2CC(N3CCC(F)CC3)C2)(c2ccc(Cl)c(Cl)c2)CN1CC1CC1 | 2.51 nM |
| O=C1CC[C@](CCN2CC(N3CCOCC3)C2)(c2ccc(Cl)c(Cl)c2)CN1CC1CC1 | 2 nM |
| O=C1CCN(C2CN(CC[C@]3(c4ccc(Cl)c(Cl)c4)CCC(=O)N(CC4CCC(F)(F)CC4)C3)C2)CC1 | 0.2 nM |
| O=C1CC[C@](CCN2CC(N3CCC(O)CC3)C2)(c2ccc(Cl)c(Cl)c2)CN1CC1CCC(F)(F)CC1 | 0.0794 nM |
